# According to the supplement of paper PMC13380429:
# Key:
# Conditions in all cases: 72 h
# Caco-2 [1] = assay: cell viability relative to DMSO; higher = less toxic
# Calu-3 [2] = assay: as above
# HepG2 [3] = assay: as above
# U2OS [4] = assay: as above
# Caco-2 [5] = assay: relative viability EC50 (midpoint between 100% and the lowest measured viability); higher = less toxic
# Calu-3 [6] = assay: as above
# HepG2 [7] = assay: as above
# U2OS [8] = assay: as above
# Caco-2 [9] = assay: drug sensitivity score (DSS) for viability; higher = more toxic; extreme values may be limits of the assay
# Calu-3 [10] = assay: as above
# HepG2 [11] = assay: as above
# U2OS [12] = assay: as above
# Vero E6 [13] = assay: cell viability relative to DMSO; higher = less toxic
# Vero E6 [14] = assay: relative viability EC50 (midpoint between 100% and the lowest measured viability); higher = less toxic
# Vero E6 [15] = assay: drug sensitivity score (DSS) for viability; higher = more toxic; extreme values may be limits of the assay
Structure (SMILES),cell viability (Caco-2 [1]; 1 nM) [%],cell viability (Caco-2 [1]; 10 nM) [%],cell viability (Caco-2 [1]; 100 nM) [%],cell viability (Caco-2 [1]; 1000 nM) [%],cell viability (Caco-2 [1]; 10000 nM) [%],cell viability (Calu-3 [2]; 1 nM) [%],cell viability (Calu-3 [2]; 10 nM) [%],cell viability (Calu-3 [2]; 100 nM) [%],cell viability (Calu-3 [2]; 1000 nM) [%],cell viability (Calu-3 [2]; 10000 nM) [%],cell viability (HepG2 [3]; 1 nM) [%],cell viability (HepG2 [3]; 10 nM) [%],cell viability (HepG2 [3]; 100 nM) [%],cell viability (HepG2 [3]; 1000 nM) [%],cell viability (HepG2 [3]; 10000 nM) [%],cell viability (U2OS [4]; 1 nM) [%],cell viability (U2OS [4]; 10 nM) [%],cell viability (U2OS [4]; 100 nM) [%],cell viability (U2OS [4]; 1000 nM) [%],cell viability (U2OS [4]; 10000 nM) [%],relative viability EC50 (Caco-2 [5]) [µM],relative viability EC50 (Calu-3 [6]) [µM],relative viability EC50 (HepG2 [7]) [µM],relative viability EC50 (U2OS [8]) [µM],drug sensitivity score (Caco-2 [9]),drug sensitivity score (Calu-3 [10]),drug sensitivity score (HepG2 [11]),drug sensitivity score (U2OS [12]),cell viability (Vero E6 [13]; 1 nM) [%],cell viability (Vero E6 [13]; 10 nM) [%],cell viability (Vero E6 [13]; 100 nM) [%],cell viability (Vero E6 [13]; 1000 nM) [%],cell viability (Vero E6 [13]; 10000 nM) [%],relative viability EC50 (Vero E6 [14]) [µM],drug sensitivity score (Vero E6 [15])
CC[C@H](C)[C@H](NC(=O)[C@H](Cc1ccc(O)cc1)NC(=O)[C@@H](NC(=O)[C@H](CCCNC(=N)N)NC(=O)[C@@H](N)CC(=O)O)C(C)C)C(=O)N[C@@H](Cc1c[nH]cn1)C(=O)N1CCC[C@H]1C(=O)O [TXA127],104,110,98.2,99.4,89.4,95.2,90.6,97.9,89.2,105,96.2,105,89.3,104,92.4,98.9,98.7,99.1,93.3,96.9,> 10,> 10,> 10,> 10,0,0,0,0,,,,,,,
OCC[N+]12CN3CN(CN(C3)C1)C2 [Y-11],102,108,97.2,101,99.2,97.6,90.1,98,102,99.1,97.6,90.5,102,102,110,,,,,,> 10,> 10,> 10,,0,0,0,,102,99.1,106,96.2,100,> 10,0
COc1cc(Nc2c(C#N)cnc3cc(OCCCN4CCN(C)CC4)c(OC)cc23)c(Cl)cc1Cl [bosutinib],95.2,99.1,107,87.1,42.6,,,,,,105,101,101,81.6,15.9,95.4,101,102,97.1,22.7,1.64,,1.66,2.88,5.2,,7.6,4.7,98.7,100,99.9,72.5,15.2,1.34,8.6
CN(C)CCOC(c1ccc(Cl)cc1)c1ccccn1 (stereo not given) [carbinoxamine],110,98.7,97.2,99.5,95.3,108,110,101,97.4,103,99.9,95.8,102,104,99.6,,,,,,> 10,> 10,> 10,,0,0,0,,94.5,102,99.4,106,106,> 10,0
O=C(O)C(Cl)Cl [dichloroacetate],102,106,116,97.3,98.6,,,,,,111,104,110,93.2,102,104,96.2,97.4,96,99.6,> 10,,> 10,> 10,0,,0,0,104,96.3,96.1,104,96,> 10,0
COc1ccc(C(=O)c2ccccc2O)c(O)c1 [dioxybenzone],101,91,106,98.7,101,106,93.3,97.7,91.1,106,102,92,96.9,96,99.3,103,99,100,105,102,> 10,> 10,> 10,> 10,0,0,0,0,110,73.6,92.4,99.4,67.2,,1.6
Cc1nc(-c2ccc(OCC(C)C)c(C#N)c2)sc1C(=O)O [febuxostat],93.5,94,104,98.6,96.1,,,,,,112,96.8,107,96.8,94.1,92.8,99.9,97.2,102,106,> 10,,> 10,> 10,0,,0,0,94.3,98.5,100,101,96.4,> 10,0
CCOCc1cc(OC)c(-c2ccc(C[C@H](NC(=O)c3c(F)cccc3F)C(=O)O)cc2)c(OC)c1 [firategrast],99.3,94.6,104,93.9,101,103,94.1,86.4,99.7,98.5,104,105,90.3,99.3,96.6,,,,,,> 10,> 10,> 10,,0,0,0,,96.3,101,98.5,101,98,> 10,0
C[N+](C)(C)CCCCCC[N+](C)(C)C [hexamethonium],97.3,104,98.2,99.4,100,86.3,97.1,101,108,103,109,96.7,97.6,95.3,96.6,100,102,96.2,103,99.8,> 10,> 10,> 10,> 10,0,0,0,0,,,,,,,
O=C(O)C1=CCNCC1 [isoguvacine],106,99.5,108,106,98.7,105,99.1,104,94.5,94.4,91,98.5,91.9,96.1,95,,,,,,> 10,> 10,> 10,,0,0,0,,101,103,100,99.4,98.2,> 10,0
CCCCCCCCCCCC(=O)N(CCO)CCO [lauric-diethanolamide],107,90.1,98.7,92.7,101,,,,,,94,99.1,93.5,96.8,90.1,99.4,95.9,101,98.5,102,> 10,,> 10,> 10,0,,0,0,104,101,103,102,97.3,> 10,0
CC(=O)c1cc2c(o1)C(=O)c1ccccc1C2=O [napabucasin],103,98.5,95.3,55.8,0.5,124,109,101,106,56.4,102,109,97.1,-0.9,-0.3,102,98.5,102,98.9,-0.4,1.13,,0.291,3.07,10.7,1.8,18.4,5.8,88.7,99.5,89.6,88.8,-0.4,2.24,7.4
CC(=O)O[C@H]1C[C@@H]2CC[C@@H]3[C@H](CC[C@@]4(C)[C@H]3C[C@H]([N+]3(C)CCCCC3)[C@@H]4OC(C)=O)[C@@]2(C)C[C@@H]1[N+]1(C)CCCCC1 [pancuronium],106,99.9,97.8,97.5,94.1,114,101,103,104,99.5,98.2,103,101,106,102,,,,,,> 10,> 10,> 10,,0,0,0,,102,102,106,101,97.9,> 10,0
Cc1ccc(N(CC2=NCCN2)c2cccc(O)c2)cc1 [phentolamine],99,98.8,109,97.4,91.1,99.8,103,105,93.5,106,96.8,96.5,106,106,104,99.3,100,94.7,101,97.3,> 10,> 10,> 10,> 10,0,0,0,0,,,,,,,
CC(N)C12CC3CC(CC(C3)C1)C2 (stereo not given) [rimantadine],101,94.6,101,103,103,91,84.1,82.5,96.6,95.6,93.6,108,100,101,103,95.3,98,101,102,104,> 10,> 10,> 10,> 10,0,0,0,0,,,,,,,
Cc1ccc(C(=O)c2ccc(CC(=O)O)n2C)cc1 [tolmetin],90.4,94.6,94.6,90.7,105,88.7,97.8,92.4,90.9,96.6,109,109,100,108,93.7,96.8,102,92.4,97.8,102,> 10,> 10,> 10,> 10,0,0,0,0,,,,,,,
